Experimental data reported in US10934310B2, “Inhibitors of Bruton's tyrosine kinase and method of their use” (JANSSEN PHARMACEUTICA NV, priority 2015, dated 2021).

Biological target: unphosphorylated-BTK kinase domain (UP-BTK), GST-tagged human BTK (389-659aa) (Homo sapiens (Human), UniProt Q06187)
Assay: BTK Kinase Lanthascreen Binding Assay
Details: for BTK_I_binding pIC50: pIC50 = negative log of the IC50 in molar; for IC50: read-out: BTK_I_binding pIC50 (converted)
Experimental: BTK Kinase Lanthascreen Binding Assay:
A BTK kinase lanthascreen binding assay monitors compound binding to unphosphorylated-BTK kinase domain (UP-BTK), by competing with a fluorescent labeled tracer. […] Data were analyzed using Xlfit™ version 5.3 from ID Business Solutions (Guildford), Microsoft Excel add-in. pIC50 refers to the negative log of the IC50 in molar.

[1] = compound, 50 nM Tracer 236, 2 nM anti-GST antibody, 60 minutes
[2] = Lanthascreen binding, 60 minutes incubation

unphosphorylated-BTK kinase domain (UP-BTK), GST-tagged human BTK (389-659aa), sequence (Q06187 389-659): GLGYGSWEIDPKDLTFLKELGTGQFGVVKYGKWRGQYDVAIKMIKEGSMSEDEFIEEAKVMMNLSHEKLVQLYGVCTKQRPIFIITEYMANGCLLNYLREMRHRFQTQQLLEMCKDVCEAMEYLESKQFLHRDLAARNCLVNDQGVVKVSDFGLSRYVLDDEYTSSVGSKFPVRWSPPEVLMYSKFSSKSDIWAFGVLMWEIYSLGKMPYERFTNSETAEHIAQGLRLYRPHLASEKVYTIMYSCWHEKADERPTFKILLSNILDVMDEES

Compound | BTK_I_binding pIC50 [1] | BTK_I_binding pIC50 [2] | further results
C=CC(=O)N[C@@H]1CC[C@H](NC(=O)c2sc3nccc4c3c2NC(=O)N4c2ccc(Oc3ccccc3)c(Cl)c2)C1 [Example 191, N-((1S,3R)-3-Acrylamidocyclopentyl)-5-(3-chloro-4-phenoxyphenyl)-4-oxo-4,5-dihydro-3H-1-thia-3,5,8-triazaacenaphthylene-2-carboxamide] | 7.95 |  | 
CC(=O)N[C@@H]1CCC[C@H](NC(=O)c2sc3nccc4c3c2NC(=O)N4c2ccc(Oc3ccccc3)cc2C)C1 (single isomer, unassigned) [Example 180, N-((1S,3R)-3-Acetamidocyclohexyl)-5-(*S)-(2-methyl-4-phenoxyphenyl)-4-oxo-4,5-dihydro-3H-1-thia-3,5,8-triazaacenaphthylene-2-carboxamide] | 7.94 |  | 
C=CC(=O)N[C@H]1CCCC[C@H]1NC(=O)c1sc2nccc3c2c1NC(=O)N3c1ccc(Oc2cccnn2)cc1 [Example 408, N-((1R,2S)-2-Acrylamidocyclohexyl)-4-oxo-5-(4-(pyridazin-3-yloxy)phenyl)-4,5-dihydro-3H-1-thia-3,5,8-triazaacenaphthylene-2-carboxamide] |  |  | IC50: > 1000 nM
C=CC(=O)N[C@H]1CC[C@@H](NC(=O)c2sc3nccc4c3c2NC(=O)N4c2cnc(OCC(C)C)cc2C)C1 (single isomer, unassigned) [Example 365] |  | 7.93 | 
Cc1cc(Oc2ccccc2)ccc1N1C(=O)Nc2c(C(=O)N[C@@H]3CCC[C@@H]3NC(=O)CN)sc3nccc1c23 (single isomer, unassigned) [Example 131, N-((1R,2S)-2-(2-Aminoacetamido)cyclopentyl)-5-(*S)-(2-methyl-4-phenoxyphenyl)-4-oxo-4,5-dihydro-3H-1-thia-3,5,8-triazaacenaphthylene-2-carboxamide] | 7.40 |  | 
CNCC(=O)N[C@@H]1CCCC[C@H]1NC(=O)c1sc2nccc3c2c1NC(=O)N3c1ccc(Oc2ccccc2)cc1C (single isomer, unassigned) [Example 448, 5-(*S)-(2-Methyl-4-phenoxyphenyl)-N-((1R,2R)-2-(2-(methylamino)acetamido)cyclohexyl)-4-oxo-4,5-dihydro-3H-1-thia-3,5,8-triazaacenaphthylene-2-carboxamide] |  | 6.66 | 
N[C@H]1CCC[C@H]1NC(=O)c1sc2nccc3c2c1NC(=O)N3c1cncc(-c2ccccc2)c1 [Example 284, N-((1R,2S)-2-Aminocyclopentyl)-4-oxo-5-(5-phenylpyridin-3-yl)-4,5-dihydro-3H-1-thia-3,5,8-triazaacenaphthylene-2-carboxamide] |  |  | IC50: > 1000 nM
Cc1cc(Oc2ccccc2)ccc1N1C(=O)Nc2c(C(=O)N[C@@H]3CCCC[C@H]3N)sc3nccc1c23 [Example 38, N-((1R,2R)-2-Aminocyclohexyl)-5-(2-methyl-4-phenoxyphenyl)-4-oxo-4,5-dihydro-3H-1-thia-3,5,8-triazaacenaphthylene-2-carboxamide] | 6.68 |  | 
CCC(=O)N[C@H]1CCCC[C@H]1NC(=O)c1sc2nccc3c2c1NC(=O)N3c1ccc(Oc2ccccc2)nc1C (single isomer, unassigned) [Example 364, 5-(*S)-(2-Methyl-6-phenoxypyridin-3-yl)-4-oxo-N-((1R,2R)-2-propionamidocyclohexyl)-4,5-dihydro-3H-1-thia-3,5,8-triazaacenaphthylene-2-carboxamide] |  |  | IC50: > 1000 nM
C=CC(=O)N[C@H]1CCC[C@H]1NC(=O)c1sc2nccc3c2c1NC(=O)N3c1ccc(Oc2ccccc2)nc1 [Example 178, N-((1R,2S)-2-Acrylamidocyclopentyl)-4-oxo-5-(6-phenoxypyridin-3-yl)-4,5-dihydro-3H-1-thia-3,5,8-triazaacenaphthylene-2-carboxamide] | 8.28 |  | 
C=CC(=O)N[C@H]1CCC[C@H]1NC(=O)c1sc2nccc3c2c1NC(=O)N3c1cnc(Oc2cccnc2C)cc1C [Example 489, N-((1R,2S)-2-Acrylamidocyclopentyl)-5-(4-methyl-6-((2-methylpyridin-3-yl)oxy)pyridin-3-yl)-4-oxo-4,5-dihydro-3H-1-thia-3,5,8-triazaacenaphthylene-2-carboxamide] |  | 7.03 | 
Cc1cc(Oc2ccccc2)ccc1N1C(=O)Nc2c(C(=O)N[C@@H]3CCCC[C@@H]3N)sc3nccc1c23 [Example 10, N-((1R,2S)-2-Aminocyclohexyl)-5-(2-methyl-4-phenoxyphenyl)-4-oxo-4,5-dihydro-3H-1-thia-3,5,8-triazaacenaphthylene-2-carboxamide] | 7.35 |  | 
C=CC(=O)N[C@H]1CCCC[C@H]1NC(=O)c1sc2nccc3c2c1NC(=O)N3c1cnc(Oc2cccnn2)cc1C [Example 467, N-((1R,2S)-2-Acrylamidocyclohexyl)-5-(4-methyl-6-(pyridazin-3-yloxy)pyridin-3-yl)-4-oxo-4,5-dihydro-3H-1-thia-3,5,8-triazaacenaphthylene-2-carboxamide] |  |  | IC50: > 1000 nM
CC(=O)N[C@@H]1CC[C@H](NC(=O)c2sc3nccc4c3c2NC(=O)N4c2cnc(Oc3ccccc3)cc2C)C1 (single isomer, unassigned) [Example 391, N-((1S,3R)-3-Acetamidocyclopentyl)-5-(*S)-(4-methyl-6-phenoxypyridin-3-yl)-4-oxo-4,5-dihydro-3H-1-thia-3,5,8-triazaacenaphthylene-2-carboxamide] |  | 7.86 | 
CC(C)(C)OC(=O)N[C@H]1CC[C@H](NC(=O)c2sc3nccc4c3c2NC(=O)N4c2ccc(Oc3ccccc3)cc2)CC1 [Example 151, tert-Butyl trans-((1R,4R)-4-(4-oxo-5-(4-phenoxyphenyl)-4,5-dihydro-3H-1-thia-3,5,8-triazaacenaphthylene-2-carboxamido)cyclohexyl)carbamate] | 6.33 |  | 
Cc1cc(Oc2ccccc2)ccc1N1C(=O)Nc2c(C(=O)N[C@@H]3CC[C@@H](NC(=O)CN)C3)sc3nccc1c23 [Example 235, N-((1R,3R)-3-(2-Aminoacetamido)cyclopentyl)-5-(2-methyl-4-phenoxyphenyl)-4-oxo-4,5-dihydro-3H-1-thia-3,5,8-triazaacenaphthylene-2-carboxamide] | 7.44 |  | 
Cc1cc(Oc2ccccc2)ccc1N1C(=O)Nc2c(C(=O)N[C@@H]3CCCC[C@@H]3N)sc3nccc1c23 (single isomer, unassigned) [Example 5, N-((1R,2S)-2-Aminocyclohexyl)-5-(*S)-(2-methyl-4-phenoxyphenyl)-4-oxo-4,5-dihydro-3H-1-thia-3,5,8-triazaacenaphthylene-2-carboxamide] | 7.69 |  | 
N[C@@H]1CC[C@@H](NC(=O)c2sc3nccc4c3c2NC(=O)N4c2ccc(Oc3ccccc3)cc2)C1 (racemic) [Example 147, trans-N-((1RS,3RS)-3-Aminocyclopentyl)-4-oxo-5-(4-phenoxyphenyl)-4,5-dihydro-3H-1-thia-3,5,8-triazaacenaphthylene-2-carboxamide] |  |  | IC50: 234 nM
Cc1cc(Oc2ccccc2)ccc1N1C(=O)Nc2c(C(=O)N[C@@H]3CCCC[C@H]3NC(=O)CN)sc3nccc1c23 (single isomer, unassigned) [Example 441, N-((1R,2R)-2-(2-Aminoacetamido)cyclohexyl)-5-(*S)-(2-methyl-4-phenoxyphenyl)-4-oxo-4,5-dihydro-3H-1-thia-3,5,8-triazaacenaphthylene-2-carboxamide] |  | 7.01 | 
C=CC(=O)N[C@H]1CCN(C(=O)c2sc3nccc4c3c2NC(=O)N4c2ccc(Oc3ccccc3)cc2C)C1 [Example 433, (S)—N-(1-(5-(2-Methyl-4-phenoxyphenyl)-4-oxo-4,5-dihydro-3H-1-thia-3,5,8-triazaacenaphthylene-2-carbonyl)pyrrolidin-3-yl)acrylamide] |  | 7.01 | 
CCC(=O)N[C@H]1CCN(C(=O)c2sc3nccc4c3c2NC(=O)N4c2ccc(Oc3ccccc3)cc2C)C1 [Example 418, (S)—N-(1-(5-(2-Methyl-4-phenoxyphenyl)-4-oxo-4,5-dihydro-3H-1-thia-3,5,8-triazaacenaphthylene-2-carbonyl)pyrrolidin-3-yl)propionamide] |  | 5.80 | 
CCC(=O)N[C@H]1CCC[C@H]1NC(=O)c1sc2nccc3c2c1NC(=O)N3c1ccc(Oc2ccccc2)nc1C (single isomer, unassigned) [Example 346, 5-(*S)-(2-Methyl-6-phenoxypyridin-3-yl)-4-oxo-N-((1R,2S)-2-propionamidocyclopentyl)-4,5-dihydro-3H-1-thia-3,5,8-triazaacenaphthylene-2-carboxamide] |  | 6.07 | 
Cc1cc(Oc2cccc(COc3ccccc3C#N)c2)ccc1N1C(=O)Nc2c(NC(=O)C3CC3)sc3nccc1c23 [Example 461, N-(5-(4-(3-((2-Cyanophenoxy)methyl)phenoxy)-2-methylphenyl)-4-oxo-4,5-dihydro-3H-1-thia-3,5,8-triazaacenaphthylen-2-yl)cyclopropanecarboxamide] |  | 6.46 | 
C=CC(=O)N[C@H]1CCC[C@H](NC(=O)c2sc3nccc4c3c2NC(=O)N4c2ccc(Oc3ccccc3)nc2)C1 (single isomer, unassigned) [Example 323] |  | 7.13 | 
C=CC(=O)N[C@H]1CCC[C@H](NC(=O)c2sc3nccc4c3c2NC(=O)N4c2ccc(Oc3ccccc3)cc2C)C1 (single isomer, unassigned) [Example 231, N-((1S,3S)-3-Acrylamidocyclohexyl)-5-(*S)-(2-methyl-4-phenoxyphenyl)-4-oxo-4,5-dihydro-3H-1-thia-3,5,8-triazaacenaphthylene-2-carboxamide] | 6.56 |  | 
C=CC(=O)N[C@H]1CCC[C@H](NC(=O)c2sc3nccc4c3c2NC(=O)N4c2cnc(Oc3ccccc3)cc2C)C1 (single isomer, unassigned) [Example 308, N-((1*S,3*S)-3-Acrylamidocyclohexyl)-5-(*S)-(4-methyl-6-phenoxypyridin-3-yl)-4-oxo-4,5-dihydro-3H-1-thia-3,5,8-triazaacenaphthylene-2-carboxamide] |  | 7.78 | 
